Reference: patent publication US20110136990A1, “POLYMER DERIVATIVE OF DOCETAXEL, METHOD OF PREPARING THE SAME AND USES THEREOF” (priority 2008, published 2011)

How the values were obtained:
Assay type in all cases: in vivo
[1] = Pharmacokinetic study in mice (plasma levels of DTX); settings: male Balb/c mice, tail vein, 10 mg/kg, 5 minutes to 48 hours
Method: Ten mg in terms of DTX of the polymer derivative of docetaxel (PEG-pAsp-14DTX) obtained in Example 1 was precisely weighed into a sample vial, to which 1 ml of purified water was added to suspend the sample. After stirring at 4° C. for a whole day and night, it was sonicated under ice cooling for 10 minutes using a Biodisruptor (Nihon Seiki Seisakusho, High Power Unit), filtered with a 0.22 μm filter [Millipore, Millex (registered trademark) GP PES], and the filtrate was collected. The filtrate was gel-filtered (GE Healthcare Bioscience, PD-10, the elution solution: a 10% sucrose solution), and the collected polymer micelle fraction (the mean particle size 120 nm) was used in the following experiment. […]
DTX in the polymer-bound form was hydrolyzed to a free form, and total DTX was determined as follows. […] This was loaded in a HPLC sample vial and analyzed by HPLC under the following condition. The content of DTX was calculated based on the ratio of the peak area of DTX relative to the peak area derived from paclitaxel, which was used as the internal standard.
To 50 μl of the collected plasma, 20 μl of paclitaxel/50% acetonitrile (20 μg/mL) as the internal standard and 300 μl of ethyl acetate were added in this order, and stirred vigorously for one minute at room temperature. […] This was loaded in a HPLC sample vial and analyzed by HPLC […]

[2] = test system: human prostate cancer PC-3 cells; assay: Drug efficacy test using human prostate cancer PC-3 cells (tumor volume); settings: nude mice, PC-3 xenograft, 15 mg/kg, tail vein every four days, three times
Method: Using the polymer derivative of docetaxel (PEG-pAsp-14DTX) obtained in Example 1, the following experiment was carried out. PC-3 cells were purchased from ATCC through Summit Pharmaceuticals International Corporation. PC-3 cells were cultured in a RPMI1640+10% FBS medium at 5% CO2 and 37° C., and grown to the cell number required for xenograft. The cells were suspended in physiological saline, and inoculated subcutaneously at the back of the male nude mice [Balb nu/nu, 5 week-old, Charles River Laboratories Japan, Inc.] to 3×10^6 cells/100 μl per mouse. Then, the nude mice were kept for 15 days, and drug administration was started when the tumor volume reached 81.6±5.0 mm^3 (mean±SE, in which SE represents the standard error, the same shall apply hereinafter). […] For the following four groups (n=8), changes in tumor volume and body weight over time were determined: (1) Control group (untreated), (2) 15 mg/kg of a DMSO solution of docetaxel group, (3) 15 mg/kg of PEG-pAsp-14DTX group, and (4) 20 mg/kg of PEG-pAsp-14DTX group (the dosage was the converted amount of docetaxel mg/kg/injection). […] For tumor volume, the major dimension (a mm) and the minor dimension (b mm) were measured with an electronic caliper [Mitsutoyo Corporation], and the volume was calculated according to the following equation. […]

[3] = Changes in body weight of mice bearing PC-3 cells; settings: nude mice bearing PC-3, 15 mg/kg, tail vein every four days, three times
Method: Using the polymer derivative of docetaxel (PEG-pAsp-14DTX) obtained in Example 1, the following experiment was carried out. PC-3 cells were purchased from ATCC through Summit Pharmaceuticals International Corporation. PC-3 cells were cultured in a RPMI1640+10% FBS medium at 5% CO2 and 37° C., and grown to the cell number required for xenograft. The cells were suspended in physiological saline, and inoculated subcutaneously at the back of the male nude mice [Balb nu/nu, 5 week-old, Charles River Laboratories Japan, Inc.] to 3×10^6 cells/100 μl per mouse. Then, the nude mice were kept for 15 days, and drug administration was started when the tumor volume reached 81.6±5.0 mm^3 (mean±SE, in which SE represents the standard error, the same shall apply hereinafter). […] For the following four groups (n=8), changes in tumor volume and body weight over time were determined: (1) Control group (untreated), (2) 15 mg/kg of a DMSO solution of docetaxel group, (3) 15 mg/kg of PEG-pAsp-14DTX group, and (4) 20 mg/kg of PEG-pAsp-14DTX group (the dosage was the converted amount of docetaxel mg/kg/injection). […] For tumor volume, the major dimension (a mm) and the minor dimension (b mm) were measured with an electronic caliper [Mitsutoyo Corporation], and the volume was calculated according to the following equation.

changes in plasma levels with time (docetaxel) [1]	SMILES	tumor growth compared to control group [2]	reduction in body weight [3]
disappears rapidly	CC(=O)O[C@@]12CO[C@@H]1C[C@H](O)[C@@]1(C)C(=O)[C@H](O)C3=C(C)[C@@H](OC(=O)[C@H](O)[C@@H](NC(=O)OC(C)(C)C)c4ccccc4)C[C@@](O)([C@@H](OC(=O)c4ccccc4)[C@H]21)C3(C)C [docetaxel solution, docetaxel]	–	–
–	CC(=O)O[C@@]12CO[C@@H]1C[C@H](O)[C@@]1(C)C(=O)[C@H](O)C3=C(C)[C@@H](OC(=O)[C@H](O)[C@@H](NC(=O)OC(C)(C)C)c4ccccc4)C[C@@](O)([C@@H](OC(=O)c4ccccc4)[C@H]21)C3(C)C [DMSO solution of docetaxel, docetaxel]	tumor growth was markedly suppressed	marked reduction in body weight
